The values that follow come from a melting point compilation (Tetko et al.; mined from patent text by program, amines drawn as free bases though some values may be those of a salt).

By melting point is commonly meant the temperature, or range, at which the solid turns liquid.

Structures are written as SMILES.

With `CCOC(=O)CNC1=NS(=O)(=O)c2ccccc21`, the melting point fell in the range of 166 to 167 °C.
For the compound `CCCCOc1ccc([N+](=O)[O-])c(C(=O)O)c1`, the melting point was in the range of 82 to 84 °C.
Compound `OCc1ccc(-c2ccccc2)s1` came in with a melting point of 91.5 °C.
Compound `CCC12CCC(=O)C=C1c1c(cc(OCC(=O)OCC(O)CO)c(Cl)c1Cl)C2` (centres undefined) came in with a melting point of 135 to 138 °C.
Compound `COc1ccc(N2CCN(c3c(C)c(C)c4c(c3C)C(C(C)(C)C)C(C)(C)O4)CC2)cc1` (centres undefined) gave a melting point of 144 to 146 °C.
Regarding `O=C(O)c1cccc(-c2ccc3c(c2)N(Cc2ccc(Cl)c(Cl)c2)CC3)c1`, the melting point was 167 to 168 °C.
`CC(=O)N1c2ccccc2SC1C#N` (centres undefined) yielded a melting point of 92 to 93 °C.
Compound `CC(C)Cc1ccc(C(CC(=O)O)C(=O)O)s1` (centres undefined) registered a melting point of 106 to 108 °C.
The value for `CC(=O)c1c(C)cc(=O)[nH]c1C` was 160 to 162 °C.
As for `OC1CSC(Oc2cncc(-c3ccc(N4CCCCC4)cc3)c2)C(O)C1O` (centres undefined), the melting point is 196 °C.
`CN1C(=O)CC[C@]2(C)c3ccc(-c4cccc5ncccc45)cc3CC[C@@H]12` showed a melting point of 100 to 104 °C.
Compound `O=C(O)COc1cccc2c1CCC(CCn1cnc(-c3ccccc3)c1-c1ccccc1)C2` (centres undefined) came in with a melting point of 197 °C.
Consider `COC(=O)C1(Cl)C[C@H](OC(C)=O)[C@@H](NC(C)=O)[C@H]([C@H](OC(C)=O)[C@@H](COC(C)=O)OC(C)=O)O1` (some centres undefined), for which the melting point is 116 to 118 °C.
As to `COCCNc1ccc(N2CCOC2=O)cc1[N+](=O)[O-]`, the melting point amounted to 148 °C.
In turn, `Cc1ccccc1C(=O)N[C@@H]1CCc2cccc(N3CCN(C)CC3)c2C1` came in with a melting point of 179 to 180 °C.
Regarding `N#CCc1c[nH]c2ccc(OCc3ccccc3)c(Cl)c12`, the melting point lay in the range of 130 to 132 °C.
The value for `c1ccc(Cc2cnc(N3CCN(c4ncnc5ccccc45)CC3)nc2)cc1` was over 250 °C; that for `CCCCC(=O)c1[nH]c(=O)[nH]c1C` was 222 to 224 °C.
As for `CCOC(=O)NC1=NCC(c2ccc(F)cc2)N1C` (centres undefined), the melting point lay in the range of 117 to 118 °C.
On to `COc1cc2cccc(OC)c2cc1C(=O)O`, for which the melting point lay within 151 to 153 °C.
Turning to `O=C(NC1CCC(CNc2nc3c(s2)CCOc2ccccc2-3)CC1)OCc1ccccc1` (centres undefined), the melting point was in the range of 124 to 127 °C.
For `COc1ccc(CN(C(=O)C2CCCc3ccc(OC)cc32)c2ccc(OC)cc2)cc1` (centres undefined), the melting point lay within 89 to 90 °C.
Compound `N#CSc1nc(C(F)(F)C(F)F)nc2ccccc12` showed a melting point of 112 to 114 °C.
As for `CC(C)(N)Cc1nc2ccccc2[nH]1`, the melting point was in the range of 209 to 214 °C.
`CCc1csc(-n2cc(C)cc2-c2ccc(S(N)(=O)=O)cc2)c1` gave a melting point of 139 to 141 °C.
`O=S(=O)(c1ccccc1)n1c(SC(F)(F)F)nc(-c2ccc(F)cc2)c1-c1ccc(F)cc1` returned a melting point of 154 to 155 °C.
Turning to `CCC(=O)c1nc(C)c(C)nc1C`, the melting point fell in the range of 65 to 67 °C.
`COc1ccc(-c2cc3ncnc(Nc4ccc5[nH]ccc5c4)c3s2)cc1OC` had a melting point of 171 to 178 °C.
As to `O=C(O)CCC1CCCC2CC(=O)NC12` (centres undefined), the melting point was 180 to 181 °C.
The value for `COC(=O)c1ccccc1OCNC(=O)CCCCCNC(=O)OC(C)(C)C` was 120 to 121 °C.
The compound `O=C(Nc1cccc([N+](=O)[O-])c1)c1ccc([N+](=O)[O-])cc1` came in with a melting point of 229 to 232 °C.
The value for `Cn1c2c(c3ccccc31)CCNC2` was over 250 °C.
Regarding `O=C1OCCC12Sc1ccc(Cl)cc1C2=O` (centres undefined), the melting point lay in the range of 143 to 144 °C.
The value for `Cc1cc(C(C)C(=O)O)ccc1C(=O)c1cccs1` (centres undefined) was 100 °C; that for `CCOC(=O)c1c(C#N)c2c(c3[nH]c4ccccc4c13)CCC2` was 229 to 231 °C.
The figure for `CN(C)c1ccc(N2C(=O)C3Cc4[nH]cnc4CN3C2=S)cc1` (centres undefined) is 185 to 200 °C; for `Fc1ccc2[nH]c3c(c2c1)CN(CCCCc1ccncc1)CC3` it is 210 to 212 °C; for `COc1cc2nc(N3CCN(c4nc5ncccc5o4)CC3)nc(N)c2cc1OC` it is over 250 °C.
Regarding `N#CCCn1cccc1-c1ccc2cnc(Nc3ccc(N4CCOCC4)cc3)nn12`, the melting point is 85 to 89 °C.
In the case of `COc1ccc(CCNC(C)=O)cc1OC1CCCC1`, the melting point lay in the range of 87 to 88 °C.
In turn, `O=C(CBr)c1ccc(OCC(=O)N2CCOCC2)cc1` returned a melting point of 105 to 107 °C.
On to `COc1cc(-c2nc3ccc(OCCCN4CCCCC4)cc3n2Cc2ccccc2)cc(OC)c1OC`, for which the melting point was determined as 92 °C.
In the case of `CCOc1nn(-c2ccc(C(F)(F)F)cn2)cc1CCOc1ccc(CC(=O)O)cc1`, the melting point lay within 142 to 143 °C.
`Cc1cccc(-c2nc(N)sc2-c2ccnc(F)c2)c1` yielded a melting point of 214 to 218 °C.
Turning to `Cc1ccccc1N(Cc1cccnc1)S(C)(=O)=O`, the melting point is 97 to 98 °C.
The figure for `CCN(CC)C(=O)Cc1cccc(Oc2ccccc2F)c1N` is 159 to 160 °C; for `CN(c1ccc(Cl)c2cc(C(N)=O)[nH]c12)S(=O)(=O)c1cccs1` it is 252 to 254 °C; for `O=C(Cl)N1CCCCCCCCCCCNC1=O` it is 65 to 67 °C.
Take `CC1Cc2c(nc3ccc(F)cc3c2C(=O)O)-c2ccc(-c3ccccc3F)cc21` (centres undefined): the melting point was in the range of 274 to 277 °C.
`CNc1ncnc2c1ncn2Cc1c(F)cccc1Cl`: the melting point is 188 to 190 °C.
For the compound `CCOc1ccc2c(c1)n(-c1ccccc1Cl)c(=O)n2Cc1ccc(NC(=O)N(CC)CC)cc1OC`, the melting point worked out at 150 °C.
In turn, `O=C(CCCCCCNC(=O)C(=O)c1cn2c3c(cccc13)CCC2)NO` gave a melting point of 158 to 159 °C.
For `O=C1NC(Cc2ccccc2)=C2OCOCOC2C(Cc2ccccc2)N1` (centres undefined), the melting point is 125 to 130 °C.
On to `O=C(CN1CCNCC1)Nc1ccc2c(c1)C(=O)c1cc(NC(=O)CN3CCNCC3)ccc1C2=O`, for which the melting point was found to be 173 °C.
The value for `CCN(CC)CCOc1ccc(Nc2ncc3c(n2)N(c2cccc(CCN(C)C)c2)C(=O)N(c2ccc(Cl)cc2Cl)C3)cc1` was 92 °C.
Turning to `C1=Cn2cnnc2Cc2ccccc21`, the melting point fell in the range of 157 to 158 °C.
The figure for `COC(=O)NNC(=S)Cc1cccc(C(F)(F)F)c1` is 131 to 132 °C.
Compound `COC(=O)c1ccc(C(O)C#Cc2ccccc2)cc1` (centres undefined) showed a melting point of 48 to 50 °C.
`CC(C)(C)C(=O)OC1CCCCC1=O` (centres undefined) displayed a melting point of 35 to 36 °C.
In turn, `Cc1c(C(=O)N[C@@H]2CN3CCC2CC3)c2ccccc2n1C` had a melting point of 176 to 177 °C.
`CC(=O)c1cc(CS(C)=O)ccc1O` (centres undefined) gave a melting point of 95 to 97 °C.
The compound `Cc1cc(CC(C)(C)NCC(O)c2cc(OCc3ccccc3)cc3c2OCC(=O)N3)ccc1F` (centres undefined) yielded a melting point of 228 to 230 °C.
`CCOc1ccccc1OCCN(CCCC(OCC)c1ccc(F)cc1)C(C)=O` (centres undefined) registered a melting point of 58 to 60 °C.
The value for `On1c(C(F)(F)F)nc2nc(Br)c(Cl)c(Br)c21` was 215 °C.
The value for `O=Cc1cccc(OCCCN2C(=O)c3ccccc3C2=O)c1` was 102 to 104 °C.
With `CC(=O)NC[C@H]1CN(c2ccc(N3CCC(=CC#N)C(C)(C)C3)c(F)c2)C(=O)O1`, the melting point is 150 to 152 °C.
As for `COC(=O)c1ccc(-c2nn(Cc3ccccc3)c3ccccc23)o1`, the melting point was 137 to 138 °C.
Regarding `O=S1(=O)c2cccc3cccc(c23)N1CCCN1CCC(CC2CCc3ccccc32)CC1` (centres undefined), the melting point is 183 °C.
The value for `NS(=O)(=O)Cc1cccc(NC(=O)c2cnn3c(C(F)(F)F)cc(-c4ccc(C(F)(F)F)cc4)nc23)c1` was 298 °C.
In turn, `CCCCOc1c(CNC(=O)OC(C)(C)C)n(CC(C)C)c(=O)c2ccc(-c3ccccn3)cc12` yielded a melting point of 123 to 124 °C.
For the compound `O=C(CNc1ccccc1Cl)Nc1c(Cl)ccc2nc(N3CC[C@@H](O)C3)ccc12`, the melting point was 215 to 219 °C.
`CCOC(=O)COc1cc(C)c(C)c2c1CCC2=O`: the melting point was 100 to 101 °C.
The compound `CNC(=O)Nc1ccc(O)cc1` yielded a melting point of 169 to 171 °C.
Consider `COc1ccnc(C(=O)N[C@H]2COC[C@H](OCc3ccccc3)[C@@H](OCc3ccccc3)[C@H](C)OC2=O)c1O`, for which the melting point lay within 144 to 146 °C.
The compound `Cc1nnc(CNC(=O)[C@H](Cc2ccccc2)NC(=O)OCc2ccccc2)n1-c1ccc(Cl)cc1C(=O)c1ccccc1` yielded a melting point of 84 to 88 °C.
The figure for `O=C(O)C1CCc2c(c3cc(F)ccc3n2C(=O)c2ccccc2)C1` (centres undefined) is 218 to 220 °C; for `CCOC(=O)C(Cc1ccc(OCCn2c(=O)sc3cc(C(=NO)C4CC4)ccc32)cc1)OCC(F)(F)F` (centres undefined) it is 105 to 107 °C; for `CCOC(=O)c1ccc(-c2ncc(-c3ccc(Cl)cc3)s2)cc1` it is 167 to 168 °C.
The compound `O=C(NO)c1ccc(CNC(=O)c2[nH]c(-c3ccccc3)cc2-c2ccc(Cl)c(Cl)c2)cc1` displayed a melting point of 187 to 188 °C.
`O=C(Nc1ccc(CN2C(=O)[C@H]3CCC[C@H]3N(C(=O)CN3C(=O)c4ccccc4C3=O)c3ccccc32)cc1)c1ccccc1F` (relative stereo): the melting point fell in the range of 238 to 240 °C.
In turn, `O=c1cc(-c2ccccc2)oc2cc(OCC(O)CNCCCCc3cccnc3)ccc12` (centres undefined) came in with a melting point of 116 to 119 °C.
Turning to `Clc1ncnc2c1c(I)cn2C1CCOC1` (centres undefined), the melting point lay in the range of 184 to 186 °C.
The compound `NC(=O)COc1cccc(CCNS(=O)(=O)c2cccc(C(F)(F)F)c2)c1` had a melting point of 118 °C.
Compound `Cc1ccc2c(c1)c(=O)oc(=O)n2Cc1ccc(F)cc1` returned a melting point of 153 °C.
`O=S(=O)(Nc1ccccc1OCc1csc(-c2ccccc2)n1)C(F)(F)F`: the melting point fell in the range of 123 to 125 °C.
`CC(C)(C)OC(=O)N1CC(=NO)C2(CC2)C1` showed a melting point of 117 to 119 °C.
`CCOC(=O)c1cnc2c(c(-c3ccccc3)nn2C)c1N(C)S(=O)(=O)c1ccc(Oc2ccncc2)cc1` displayed a melting point of 128 to 131 °C.
In turn, `COCCOc1ccc(/C=C/CO)c(Oc2ncc(C(F)(F)F)cc2Cl)c1` returned a melting point of 119 to 121 °C.
In turn, `CC(=O)c1ccc(OCCCN2CCC(C(O)(c3ccc(F)cc3)c3ccc(F)cc3)CC2)c(C)c1` displayed a melting point of 116 to 117 °C.
